Source: patent publication US20220000873A1, “S3QELS TO PROTECT AGAINST INTESTINAL PERMEABILITY” (Buck Institute for Research on Aging, priority 2018, published 2022)

Legend:
[1] = test system: C57BL/6 mice fed a high-fat diet; assay: Mouse intestinal permeability (plasma FITC-dextran after gavage and fecal albumin); format: in vivo; details: high-fat diet (60% kcal) with 200 mg/kg S3QEL in diet, 16 weeks; plasma FITC-dextran and fecal albumin (FIG. 5A, B)
Method: (§1) Six-week-old C57BL/6 mice were purchased from Jackson Laboratories and acclimated in-house for two weeks before the study. At 8 weeks of age, mice were randomized into groups based on weight and fed either a control semi-purified diet D12450J containing 10% fat kcal, a 60% fat kcal diet D12492, or a custom-mixed 60% fat kcal diet D12492 containing 200 mg/kg of S3QELs. Diets were purchased from Research Diets and were gamma-irradiated. Mice were maintained on the experimental diets for 16 weeks in total. Food consumption was measured daily in a semiquantitative fashion. The food was weighed before placing in the cage, and then weighed again 24 h later. The total food weight difference within 24 h was divided by the number of mice in the cage to determine average food consumption per mouse. All experiments involving the use of mice were reviewed and approved by the Institutional Animal Care and Use Committee (IACUC) of the Buck Institute.
Mice were fasted for 4 h prior to assay. […] Blood plasma samples were diluted appropriately using 1×PBS and FITC-dextran fluorescence was measured at Ex 485 nm/Em 535 nm. FITC-dextran amount was determined using standard curves generated from a known amount of FITC-dextran titrated in plasma from control or high fat-fed mice. […]

[2] = test system: C57BL/6 mice fed a high-fat diet; assay: Mouse intestinal gene expression (qPCR, colon and distal small intestine); format: in vivo; details: high-fat diet with 200 mg/kg S3QEL, 16 weeks
Method: as §1, with “The total food weight difference within 24 h was divided by the number of mice in the cage to determine average food consumption per mouse. All experiments involving the use of mice were reviewed and approved by the Institutional Animal Care and Use Committee (IACUC) of the Buck Institute.” left out
RNA from the fly intestine lysates, and the aqueous phase from the mouse intestinal Trizol lysates, were further processed to isolate RNA using a Quick-RNA™ MiniPrep Kit (Zymo Research) according to the manufacturer's guidelines. […] The quantity and quality of fly and mouse RNA samples were determined using a NanoDrop 1000 spectrophotometer (Thermo Scientific). 1 μg of total RNA from either fly or mouse intestine was used in a total reaction volume of […] containing 4 μL of iScript Reverse Transcription Supermix (Bio-Rad) to synthesize cDNA according to the manufacturer's guidelines. cDNA was stored at −20° C. before carrying out quantitative RTPCR. […]

For Cc1ccc(-n2ncc3c(N(Cc4ccccc4)C(C)C)ncnc32)cc1Cl [S3QEL2.2], the “increases in intestinal permeability in mice” value [1] was “strongly protected”, the “decrease in tight-junction gene expression” value ([2]; both colon and distal small intestine (FIG. 5C, FIG. 11)) was “protected against the decrease” and the “decrease in mucin gene expression” value ([2]; both colon and distal small intestine (FIG. 5D, FIG. 11)) was “protected against the decrease”.
